These results are taken from patent US20230054926A1, “COMPOSITIONS AND METHODS FOR MICROBIAL TREATMENT OF SKIN DISORDERS” (DUPONT US HOLDING, LLC, priority 2020, published 2023).

This assay concerns M. globosa. Briefly: Flow cytometry analysis of M. globosa growth inhibition by cell free fermentate. The format is cell-based, Malassezia globosa. Conditions: Example 6, 200 μl supernatant + 800 μl diluted culture, vs respective media control, amphotericin B 2.5 μg/ml. The method, then: The growth medium for Malassezia species was a modified Leeming & Notman (mLN) media that contained 10 g/L bacteriological peptone, 2 g/L yeast extract, 8 g/L desiccated ox bile, 10 ml/L glycerol, 0.5 g/L glycerol monostearate, 5 ml/L Tween-60 and 20 ml/L palm oil.
Lipid emulsion by the presence of lipids and surfactants in the mLN media as well as cell clumping phenotype of Malassezia spp, make it difficult to monitor cell growth by optical density measurement or colony counting after spreading a culture aliquot on plates, To circumvent this issue, flow cytometry with cell staining dyes was used to quantitatively measure cell growth in lipid emulsion media. […]
At different time points, 50 μl aliquot from each culture was subjected to mild sonication with amplitude of 5 and 1 sec on/off cycle for 30 sec using Qsonica 0700 (Qsonica, Newtown, Conn.). […] The samples were analyzed by flow cytometry using a Novocyte Quanteon (Asea). SytoBC, a cell permeable DNA/RNA intercalating dye was excited by the 488 laser and detected using a 530/30 bandwidth filter. Concanavalin A, a mannose binding lectin labeled with alexaFluor 640, was excited with the 637 nm laser and detected using a 660/20 bandwidth filter. […] Malassezia cell counts were determined by gating on high sytoBC, high ConA events and recording the event/ul values for each sample. […]

For the compound `C[C@@H]1[C@H](O)[C@@H](C)/C=C/C=C/C=C/C=C/C=C/C=C/C=C/[C@H](O[C@@H]2O[C@H](C)[C@@H](O)[C@H](N)[C@@H]2O)C[C@@H]2O[C@](O)(C[C@@H](O)C[C@@H](O)[C@H](O)CC[C@@H](O)C[C@@H](O)CC(=O)O[C@H]1C)C[C@H](O)[C@H]2C(=O)O` [Amphotericin B, amphotericin B], the “% M. globosa growth inhibition” value (Day 1) was 4% and the “% M. globosa growth inhibition” value (Day 3) is given as 88%.
